Laboratory results as given in patent US20240360510A1, “DETECTION OF KDM1A LOSS OF ACTIVITY FOR DIAGNOSING ENDOCRINE DISORDERS” (UNIVERSITE PARIS-SACLAY, priority 2021, published 2024).

Assays:
[1] = test system: GIPR messenger RNA levels in human pancreatic β-cells EndoC-βH1; test: GIPR transcripts by RT-qPCR in pancreatic β-cells EndoC-βH1 after KDM1A inhibition; assay type: cell-based
Protocol: (§1) H295R cells were cultivated in DMEM/Ham's F-12 Medium supplemented with 2 mM Glutamine, 100 IU/mL Penicillin, 100 μg/mL Streptomycin, 10% Fetal Bovine Serum, 20 mM HEPES, and a mixture of Insulin (1 μM), Transferrin (5.8 mg/ml) and Selenium (60 nM). Human pancreatic β-cells EndoC-βH1 have also been used. They are cultivated as described in Ravassard P. et al^38.
(§2) Cells were incubated up to 10 days with 0.5 μM GSK-LSD1 an irreversible inhibitor of KDM1A (Sigma-Aldrich).
(§3) Transfection of siRNAs protocol was performed as follow. Briefly, H295R cells were cultivated in serum free Optimem medium (Life Technologies) for 2 hours, then incubated for 6 h with Lipofectamine RNAiMAX (2 μL/well) and 100 nM siRNA targeting KDM1A or Scrambled siRNA (Horizon). Two iterative transfections were performed at 1 and 3 days after seeding. Expression level of the studied gene was determined using reverse transcription quantitative polymerase chain reaction (RT-qPCR).
(§4) RNA extraction from cell cultures and tissue protocol and RT-qPCR protocol were as follows: DNA was extracted from frozen adrenal samples using the phenol-chloroform-isoamyl alcohol extraction method. DNA was extracted from Formalin-Fixed Paraffin-Embedded (FFPE) sample using NucleoSpin DNA FFPE XS kit (Macherey-Nagel) or from blood leucocytes using either an automated QIAsymphony platform (Qiagen) or the Flexigene DNA Kit (Qiagen). Total RNA was extracted from tissues or cells using TRIzol reagent according to the manufacturer's instructions. After DNAse I treatment (New England Biolabs), 1 μg of total RNA was reverse transcribed using the High-Capacity cDNA reverse transcription kit (Life Technologies). Samples were analyzed by RT-qPCR using the Power SYBR® Green PCR Master Mix (Life Technologies) or the TaqMan Gene Expression Assays (Life Technologies, ref. 4331182 and 4448489) and were run on a QS6 Real-Time PCR System (Life Technologies). […] Relative expression of the gene of interest was expressed as a ratio of attomoles to attomoles of housekeeper genes.

[2] = test system: GIPR protein in H295R cells; test: GIPR protein by immunofluorescence and automated High-throughput Microscopy in H295R cells; assay type: cell-based, human
Protocol: as §1, §2, §3
Cells were grown on a 24 well plates containing glass coverslips (14-mm diameter). After 24 h, siRNA targeting KDM1A or Scramble siRNA (100 nM) were transfected as described above. Briefly, cells were fixed with 4% paraformaldehyde and permeabilized 10 min with a 0.2% solution of Triton X100 diluted in PBS. […]
Sequential images (20×-0.40 NA lens) were acquired for each channel with the automated ArrayScan VTI imaging and analyzing platform (Thermo Fisher Scientific). The TargetActivation Algorithm (v.4) was used to detect and quantify the GIPR fluorescence as following. DAPI fluorescence was used to find the focus and was sequentially acquired with GIPR fluorescence in order to give separate image files. […] In order to quantify the amount of GIPR fluorescence (channel 2) present in the cytoplasm of the primary selected object, this nuclear mask was dilated to cover the cytoplasmic region. […] The cytoplasmic mask was lastly used to detect, select and quantify the average fluorescence of GIPR in the final population of transfected cells (n>40,000). […]

[3] = test system: GIPR expression in H295R cells; test: GIPR messenger RNA by RT-qPCR in H295R cells after KDM1A inhibition; assay type: cell-based, human; conditions: for GIPR messenger RNA level (RT-qPCR): GSK-LSD1 at 0.5 μM
Protocol: as §1, §2, §3, §4

In the case of `c1ccc([C@@H]2C[C@H]2NC2CCNCC2)cc1` [GSK-LSD1], the “GIPR transcripts (RT-qPCR)” value ([1]; KDM1A siRNA and GSK-LSD1, 3 days of treatment, p=0.0113) is reported as “significant increase in GIPR transcripts”, the “GIPR transcripts (RT-qPCR)” value ([1]; KDM1A siRNA and GSK-LSD1, 7 days of treatment, p=0.0027) is reported as “significant increase in GIPR transcripts” and the “GIPR expression (GIPR transcripts, RT-qPCR)” value ([1]; KDM1A silencing and concomitant GSK-LSD1, time not given) is reported as “increased GIPR expression”. For the same compound, the “GIPR protein expression in the cytoplasm (automated High-throughput Microscopy)” value ([2]; H295R cells transfected (KDM1A siRNA) and treated (GSK-LSD1), seven days, p<0.0001, analyzed cells>40 000) was “increase in protein expression”, the “GIPR expression observed by immunofluorescence” value ([2]; H295R cells, KDM1A siRNA transfection and concomitant pharmacological inhibition (GSK-LSD1) for seven days) was “significant GIPR expression” and the “expression of GIPR protein (automated High-throughput Microscopy)” value ([2]; H295R cells, compared to untreated cells, analyzed cells>40 000, p<0.001) was “significant increased expression of GIPR protein”. The “GIPR messenger RNA level (RT-qPCR)” value ([3]; seven days, p=0.0082) was “significant increase of GIPR expression”, the “GIPR messenger RNA level (RT-qPCR)” value ([3]; three days, p=0.0069) was “significant increase of GIPR expression” and the “GIPR expression, quantified by RT-qPCR” value ([3]; treatment with GSK-LSD1, time not given) was “increased GIPR expression”.
